From patent US20080008774A1, “Use Of Plants, Plant Extracts And Nature-Identical Components From Plants To Affect The Rumen Fermentation And To Improve The Energy And Protein Retention Of Ruminants” (DSM IP ASSETS B.V., priority 2004, published 2008)

Columns and labels:
[1] = system: ruminal ciliate protozoa; assay: Bacteriolytic activity of ruminal ciliate protozoa (breakdown of 14C-leucine-labelled Selenomonas ruminantium in strained ruminal fluid); type: cell-based, sheep
Method: The rate of breakdown of [^14C]leucine-labelled Selenomonas ruminantium was determined by incubating strained ruminal fluid in vitro with labelled S. ruminantium in the presence of 5 mM unlabelled L-leucine as described previously (Wallace & McPherson, 1987). Under these conditions, the great majority of bacterial protein breakdown is caused by the ingestion and digestion of bacteria by ciliate protozoa. The samples were, unless stated otherwise, added at a concentration of 5 mg/ml. The sheep received a mixed grass hay:concentrate diet (Frumholtz et al., 1989).

[2] = system: ruminal digesta; assay: Proteolytic activity of ruminal digesta, Method 1 (14C-casein); type: cell-based, sheep; conditions: 2.5 mg/ml, 1 h; value in absence of plant material = 100
Method: Method 1. Strained ruminal fluid from the same sheep was used to determine proteolytic activity using the ^14C-casein method of Wallace (1983). Samples were added to a final concentration of 2.5 mg/ml, and an incubation time of 1 h was used.

[3] = system: ruminal fermentation; assay: Reading methods for general effects on fermentation (RPT, maize silage); type: cell-based, lactating dairy cows; conditions: Reading diet; for Cumulative gas, 24 h / Fermentation efficiency: control = 100; for Dry matter digestion: value in absence of plant material = 100
Method: A series of thirteen consecutive fermentations, one per week, was undertaken using the Reading Pressure Technique [RPT], to identify potential effects from including these test materials on the fermentation and degradation characteristics of a basal forage [maize silage]. All materials were examined in triplicate and at two inclusion levels [100 and 400 mg g^−1 DM substrate], with the exception of β-myrcene [10 and 40 mg g^−1 inclusion levels]. The maize silage was pre-dried and milled to pass a 2 mm screen. A total of 1.0 g blended substrate [silage plus substrate] was placed in each fermentation flask. Buffered incubation medium [90 ml] was then added, the flasks sealed and stored overnight at room temperature. Prior to inoculation with prepared rumen fluid, flask contents were raised to 39° C. Rumen fluid was obtained manually [hand-squeezed contents] prior to feeding [07.00 h] from two lactating dairy cows offered a maize/grass silage : concentrate [60:40] ration ad libitum. The fluid was filtered through two layers of muslin and held under CO2 at 39° C. until use. Ten ml prepared fluid was added to each flask and these incubated at 39° C. for the duration of the study. Six negative controls [buffered medium plus rumen fluid only] were included in each run to correct gas values and degradation residues for direct rumen fluid effects. In addition un-supplemented maize silage [1.0 g flask^−1] was included in all runs [six flasks per run]. Results within studies were expressed relative to the positive control values. Headspace gas pressure readings were obtained 2, 4, 6, 8, 10, 12, 14, 16, 18, 21 and 24 hours post-inoculation. Following the last measurement approximately 3.0 ml fermentation medium was sampled from each flask and bulked by test material/inclusion level and stored frozen [−20° C.] until later analysis for VFA composition using a Varian 3600 GC. Fermentation residues were recovered by filtering flask contents through 60 ml Gooch crucibles [porosity 1, 100 to 160 μm] under light vacuum. The residues were then dried [100° C. for 24 hours], weighed, ashed [500° C. overnight] and reweighed. The quantity of dry matter [DM] and organic matter [OM] determined were used to assess iDMD and iOMD [in vitro DM and OM degradation, respectively]. The extent [ml gas g^−1 OM incubated] and rate of fermentation gas release [ml h^−1] were generated using a previously derived quadratic function to convert pressure to volume. Feed fermentation efficiency [FE] was estimated as iDMD [g kg^−1]/cumulative gas [ml] release at 24 h post-inoculation. Statistical differences between treatment means and the positive control [maize silage alone] were assessed using Students T-test and significance declared at […].

[4] = system: ruminal fermentation; assay: Hohenheim methods for general effects on fermentation (RPT, grass silage); type: cell-based, non-lactating Holstein cows; conditions: Hohenheim diet; amount in feed 10 %; control = 100
[5] = system: ruminal fermentation; assay: León methods for general effects on fermentation (batch cultures); type: cell-based, sheep; conditions: Leon diet; amount in feed 10 %; 24 h; control = 100
Method: Rumen cannulated sheep fed on a diet consisting of 75% alfalfa hay and 25% barley (free access to vitamin-mineral supplements and water) were used as donors for rumen fluid. Rumen fluid was collected just before the morning meal. The substrate used for the batch cultures consisted of 50% alfalfa hay, 40% grass hay and 10% barley grain, milled in a hammer mill with a 1-mm screen. The amount of substrate used was 500 mg, and inclusion rate of the test plant was 10% (ca. 50 mg). Both were weighed into serum bottles, where 50 ml of buffered rumen fluid (containing 10 ml of filtered rumen fluid and 40 ml of the medium described by Goering & Van Soest, 1970) were dispensed an-aerobically. The bottles were sealed and incubated at 39° C. After 24 h of incubation, the ensuing measurements were recorded: • Total gas production (ml), using a pressure transducer and collecting the gas in a calibrated syringe. • pH in the incubation medium. • Volatile fatty acids concentration in the incubation medium, by GC (VFA was also measured at inoculation time to calculate VFA production after 24 h). • DM incubation residue, by filtering the bottle contents in sintered crucibles and weighing the residue after drying. Thereafter, the neutral detergent fibre (NDF) content of the residue was determined to calculate the amount of un-degraded NDF. From this, DM and NDF disappearance were estimated. Three replicates per plant were incubated, and blanks (no substrate no plant) and controls (500 mg substrate without any plant, and 550 mg substrate without any plant) were used.

[6] = system: ruminal digesta; assay: Methane formation by ruminal digesta (León incubations, GC); type: cell-based, sheep
Method: A representative sample of the gas produced was taken for subsequent analysis. Sampling was conducted using special gas-tight glass syringes fitted with a valve allowing for sample locking and storage. The sample was collected directly from the headspace, after inserting the needle through the septum of the stopper, taking a sample in the syringe and closing the valve. This sample was collected after measuring total gas production, assuming that gas composition was the same in the gas released and in that remaining in the headspace. Methane concentration in the gas produced was determined by gas chromatography. The gas sample (300 to 500 μl) was injected directly from the gas-tight syringe to the corresponding port. The GC parameter settings used for the analysis were: • Instrument: Shimadzu GC-14B provided with a flame ionisation detector (FID) • Column: 2.3 meters length×2.1 mm internal diameter stainless steel column packed with 60/80 mesh Carboxen 1000 stationary phase • Carrier gas: Helium, flow rate (100 kPa), Constant flow mode • Temperatures: • Detector: FID. Temperature 200° C., Synthetic Air flow rate (50 kPa), H2 flow rate (50 kPa) • Injector: Temperature 200° C. • Column-oven: 170° C. […] The standard curve was established by plotting a linear regression of the standard quantities injected of methane versus the area of the peaks to obtain the response factor.

[7] = system: lactic acid producing bacteria; assay: Acidosis assay (pH and lactic acid, milled wheat grain, 48-h fermentation); type: cell-based, cows; conditions: 100 mg/g DM in milled wheat grain (β-myrcene 10 mg/g), control = 100
Method: A model was used in which the decrease in incubation medium pH and the concentration of lactic acid produced, relative to the controls over a 48-h fermentation period provided an indication of the ability of the test substrates to offset potential acidotic effects. In this study milled wheat grain [2 mm] was used as the basal substrate and the test materials included at 100 mg g^−1 DM [or 10 mg g^−1 DM β-myrcene]. As before 1.0 g total substrate was added to each flask. To enhance lactic acid production, the buffer solution prepared was diluted by 50 percent. This was to ensure that the buffering capacity of the incubation medium was exceeded and the resulting decrease in pH encouraged growth of Lactobacilli and other lactic acid producing bacteria. Rumen fluid was obtained and prepared as previously described except that the two cows used were offered an early lactation ration with a high level of coarse milled wheat. Fluid pH measurements were made one hour after inoculation [start pH] then after a further 23 and 47 hours, by inserting a pH electrode directly into each flask. Immediately following the last measurement approximately 3.0 ml fluid were taken from each flask, bulked by sample and stored frozen at −20° C. until analyzed enzymatically for L [+] lactic acid. Results are presented as absolute differences relative to the controls. […]

[8] = amount in feed 10 % (β-myrcene 10 mg/g)
[9] = amount in feed 40 % (β-myrcene 40 mg/g)

C=CC(=C)CCC=C(C)C [Sample 13, β-Myrcene]
bacteriolytic activity of ciliate protozoa / protozoal activity (in words) [1]: moderate inhibiting effect | Protozoal activity ([1]; 5 mg/ml, value in absence of plant material = 100): 68 | Proteolysis, Method 1 [2]: 110 | Cumulative gas, 24 h [3, 8]: 100 | Fermentation efficiency [3, 8]: 103 | Dry matter digestion [3, 8]: 103 | Cumulative gas, 24 h [3, 9]: 82 | Fermentation efficiency [3, 9]: 109 | Dry matter digestion [3, 9]: 89 | C3/C2 [4]: 104 | Digestibility [4]: 100 | Fermentation efficiency [4]: 99 | Gas production [4]: 101 | SCFA [4]: 103 | App. digestibility [5]: 93 | C3/C2 [5]: 105 | Digestibility [5]: 102 | Fermentation efficiency [5]: 109 | Gas production [5]: 97 | Microbial biomass [5]: 115 | TVFA [5]: 96 | methane production / methanogenic activity (in words) [6]: decrease | Methane formation, Leon ([6]; 10% of feed, value in absence of plant material = 100): 90 | Acidity, 24 h ([7]; 24 h): 105 | Acidity, 48 h ([7]; 48 h): 115
